# Assay results reported in article PMC12491518, “Fabrication of cytotoxic mirror image nanopores” (Nature Communications, 2025).
# Where a SMILES comes first, the peptide text is derived from it. [ ]: non-standard residue; d: D form.
# Tested on: MDA-MB-231 cells
# Format: cell-based, human
# Settings: 10 µM and 20 µM, 24 h, MTT, n = 3
# Method: The MDA-MB-231 cell line was obtained from ATCC (Kind gift from Dr. Annapoorni Rangarajan, Indian Institute of Science, Bengaluru, Karnataka, India) and tested negative for mycoplasma contamination. Cells were cultured in DMEM (Gibco, 11965-092) supplemented with 10% FBS (Thermo Fisher Scientific, 10270-106) and Penicillin (100 Units/mL) /Streptomycin (100 µg/mL) (Thermo Fisher Scientific, 15070-063). […] Cell proliferation was measured 24 h after the addition of Peptide/ DDM using MTT assay (3-(4,5-dimethylthiazol-2-yl)-2,5-diphenyltetrazolium bromide, M6494, Thermo Fischer Scientific). […] The purple-colored formazan crystals were dissolved by adding 100 µL DMSO (D5879, Sigma Aldrich), and the absorbance at 570 nm was measured using a plate reader (EMax plus microplate reader). […]
# Immunofluorescence (IF) images were analyzed to assess the impact of different treatments on cell membrane integrity. […] We evaluated a t least 100 cells for each group - Control, DDM-treated cells and peptide-treated cells- with independent analysis done by a student blinded to the groups' identity . […]
# indicating a loss of cell membrane integrity. This categorization provided a clear and systematic approach to quantify the effects of various treatments on cell membrane integrity. […]
structure (smiles),measurement,value
CC[C@@H](C)[C@@H](NC(=O)[C@H](N)CCSC)C(=O)N[C@H](CC(=O)O)C(=O)N[C@H](CCC(N)=O)C(=O)N[C@@H](C(=O)N[C@@H](C(=O)N[C@H](CCC(=O)O)C(=O)N[C@@H](C(=O)N[C@H](Cc1ccccc1)C(=O)NCC(=O)N[C@H](CCC(N)=O)C(=O)N[C@H](CC(C)C)C(=O)NCC(=O)N[C@@H](C(=O)N[C@H](Cc1ccccc1)C(=O)N[C@H](CC(C)C)C(=O)NCC(=O)NCC(=O)N[C@H](Cc1ccccc1)C(=O)NCC(=O)N[C@H](CC(N)=O)C(=O)N[C@@H](C(=O)N[C@H](Cc1ccccc1)C(=O)N[C@H](CCCCN)C(=O)NCC(=O)N[C@H](CC(C)C)C(=O)N[C@H](CCCCN)C(=O)N[C@H](CC(=O)O)C(=O)N[C@@H](C(=O)N[C@@H](C(=O)N[C@H](CCC(=O)O)C(=O)N[C@@H](C(=O)N[C@@H](C(=O)N[C@@H](C(=O)N[C@H](CCCCN)C(=O)N[C@H](Cc1c[nH]c2ccccc12)C(=O)N[C@@H](C(=O)N[C@H](C)C(=O)N[C@H](C)C(=O)N[C@H](CCCCN)C(=O)O)[C@H](C)O)C(C)C)[C@H](C)CC)[C@H](C)O)[C@H](C)CC)C(C)C)[C@H](C)CC)[C@H](C)O)[C@H](C)CC)[C@H](C)O)[C@H](C)CC [DpPorA] (H-[dM][dI][dD][dQ][dI][dT][dE][dI][dF]G[dQ][dL]G[dT][dF][dL]GG[dF]G[dN][dI][dF][dK]G[dL][dK][dD][dV][dI][dE][dT][dI][dV][dK][dW][dT][dA][dA][dK]-OH; N-terminus and C-terminus assumed),change in cell viability,no significant change in viability
